Measurements taken from patent publication US20230310388A1, “Methods and Compositions for Treating Fungal Infections” (Neoculi Pty Ltd, priority 2020, published 2023).
In brackets after ≈: the same amount, converted by molar mass.

How the values were obtained:
[1] = system: Candida albicans; experiment: CLSI broth microdilution MIC (Example 3); format: cell-based
Experimental: (§1) Antifungal minimum inhibitory concentration (MIC) testing was undertaken as recommended by the CLSI. Briefly, antifungal susceptibility tests were performed for amphotericin B, robenidine (NCL812) and 5 robenidine analogs (NCL062, NCL195, NCL219, NCL259, NCL265) by standard broth microdilution method (CLSI) in RPMI 1640. Various concentrations (ranging from high to low) of the selected compounds were prepared in RPMI 1640 medium by double dilution in 96-well microtitre plates. Each well contained an inoculum of approximately 2×10^3 cells/mL. The wells without addition of drugs served as negative (no inoculum) and positive (inoculum only) growth controls. Microtitre plates were incubated at 35° C. for 24-48 hours. […] Antifungal MICs were determined for each isolate in duplicate; if the values obtained were different, the MIC test was repeated a third time. Antifungal susceptibility tests were performed for amphotericin B and NCL analogs by standard broth microdilution method (CLSI). Briefly, various concentrations (ranging from high to low) of the selected compounds were prepared in RPMI 1640 medium by double dilution in the 96-well plates. Each well contained an inoculum of approximately 2×10^3 cells/mL. The wells without addition of drugs served as a negative control. Micro plates were incubated at 35° C. for 48 hour and read spectrophotometrically at 600 nm, using a microplate reader (Multiskan-EX; Thermo Elect. Corp., USA).

[2] = system: Candida parapsilosis; experiment: CLSI broth microdilution MIC (Example 3); format: cell-based; conditions: Candida parapsilosis ATCC 22019
Experimental: as §1

[3] = system: Candida albicans; experiment: CLSI broth microdilution MIC (Example 5); format: cell-based
Experimental: (§2) Antifungal minimum inhibitory concentration (MIC) testing was undertaken as recommended by the CLSI. Briefly, antifungal susceptibility tests were performed for amphotericin B, robenidine (NCL812) and robenidine analogs (NCL23, NCL24, NCL97, NCL113, NCL115, NCL195, NCL219, NCL220, NCL259, NCL265) by standard broth microdilution method (CLSI) in RPMI 1640. Various concentrations (ranging from high to low) of the selected compounds were prepared in RPMI 1640 medium by double dilution in 96-well microtitre plates. Each well contained an inoculum of approximately 2×10^3 cells/mL. The wells without addition of drugs served as negative (no inoculum) and positive (inoculum only) growth controls. Microtitre plates were incubated at 35° C. for 24-48 hours. […] Antifungal MICs were determined for each isolate in duplicate; if the values obtained were different, the MIC test was repeated a third time.

[4] = system: Cryptococcus neoformans; experiment: CLSI broth microdilution MIC (Example 5); format: cell-based
Experimental: as §2

[5] = system: Candida albicans; experiment: CLSI broth microdilution MIC (Example 4); format: cell-based
Summary of the method: (§3)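 CLSI broth microdilution in RPMI 1640 with two-fold compound dilutions and inoculum about 2×10^3 cells/mL. Plates incubated 35° C for 24-48 hours; MICs determined in duplicate, with a third test when the duplicates differed.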

[6] = system: Cryptococcus neoformans; experiment: CLSI broth microdilution MIC (Example 4); format: cell-based
Summary of the method: as §3

[7] = system: C. gattii; experiment: CLSI broth microdilution MIC (Example 6); format: cell-based, Cryptococcus gattii
Experimental: (§4) Antifungal minimum inhibitory concentration (MIC) testing was undertaken as recommended by the CLSI (1). Briefly, antifungal susceptibility tests were performed for amphotericin B, robenidine (NCL812) and 10 robenidine analogs (NCL023, NCL024, NCL097, NCL113, NCL115, NCL195, NCL219, NCL220, NCL259, NCL265) by standard broth microdilution method (CLSI) in RPMI 1640. Various concentrations (ranging from high to low) of the selected compounds were prepared in RPMI 1640 medium by double dilution in 96-well microtitre plates. Each well contained an inoculum of approximately 2×10^3 cells/mL. The wells without addition of drugs served as negative (no inoculum) and positive (inoculum only) growth controls. Microtitre plates were incubated at 35° C. for 24-48 hours. […] Antifungal MICs were determined for each isolate in duplicate; if the values obtained were different, the MIC test was repeated a third time.

[8] = system: Candida albicans; experiment: CLSI broth microdilution MIC (Example 6); format: cell-based
Experimental: as §4

[9] = system: Cryptococcus neoformans; experiment: CLSI broth microdilution MIC (Example 6); format: cell-based
Experimental: as §4

Question: `C[C@@H]1[C@H](O)[C@@H](C)/C=C/C=C/C=C/C=C/C=C/C=C/C=C/[C@H](O[C@@H]2O[C@H](C)[C@@H](O)[C@H](N)[C@@H]2O)C[C@@H]2O[C@](O)(C[C@@H](O)C[C@@H](O)[C@H](O)CC[C@@H](O)C[C@@H](O)CC(=O)O[C@H]1C)C[C@H](O)[C@H]2C(=O)O` [Amphotericin B, reference compound] was tested. Which MIC ([1]; Candida albicans ATCC 90028, 1st) did it give?
Answer: Its MIC is 0.25 µg/mL (≈ 0.271 µM).

Question: And the MIC ([1]; Candida albicans ATCC 90028, 2nd)?
Answer: Its MIC is 0.5 µg/mL (≈ 0.541 µM).

Question: And the MIC ([1]; Candida albicans, 1st)?
Answer: The MIC was 0.5 µg/mL (≈ 0.541 µM).

Question: What about the MIC ([1]; Candida albicans, 2nd) of the same compound?
Answer: The MIC was 1 µg/mL (≈ 1.08 µM).

Question: What about the MIC ([2]; 1st) of the same compound?
Answer: Its MIC is 0.5 µg/mL (≈ 0.541 µM).

Question: What about the MIC ([2]; 2nd) of the same compound?
Answer: Its MIC is 0.5 µg/mL (≈ 0.541 µM).

Question: What about the MIC ([3]; C. albicans SA3) of the same compound?
Answer: Its MIC is 2 µg/mL (≈ 2.16 µM).

Question: And the MIC ([3]; Candida albicans ATCC 90028)?
Answer: The MIC was 0.5 µg/mL (≈ 0.541 µM).

Question: And the MIC ([3]; clinical isolate C. albicans 12-93301752 Azole Resistant)?
Answer: The MIC was 0.5 µg/mL (≈ 0.541 µM).

Question: What about the MIC ([3]; clinical isolate C. albicans 14-90045999 Azole Resistant) of the same compound?
Answer: The MIC was 0.25 µg/mL (≈ 0.271 µM).

Question: What about the MIC ([3]; clinical isolate C. albicans 15-45171061) of the same compound?
Answer: Its MIC is 0.125 µg/mL (≈ 0.135 µM).

Question: What about the MIC ([3]; clinical isolate C. albicans 15-91329871) of the same compound?
Answer: The MIC was 0.125 µg/mL (≈ 0.135 µM).

Question: And the MIC ([3]; clinical isolate C. albicans 16-24136919 Azole Resistant)?
Answer: Its MIC is 0.5 µg/mL (≈ 0.541 µM).

Question: And the MIC ([3]; clinical isolate C. albicans 16-46177400)?
Answer: Its MIC is 0.25 µg/mL (≈ 0.271 µM).

Question: What about the MIC ([3]; clinical isolate C. albicans 16-90050810) of the same compound?
Answer: The MIC was 0.125 µg/mL (≈ 0.135 µM).

Question: And the MIC ([3]; clinical isolate C. albicans 16-90054237)?
Answer: The MIC was 0.125 µg/mL (≈ 0.135 µM).

Question: And the MIC ([3]; clinical isolate C. albicans 18-144-00196)?
Answer: The MIC was 0.25 µg/mL (≈ 0.271 µM).

Question: And the MIC ([3]; clinical isolate C. albicans 18-148-08188 Azole Resistant)?
Answer: Its MIC is 0.5 µg/mL (≈ 0.541 µM).

Question: And the MIC ([4]; Cryptococcus neoformans SA1)?
Answer: Its MIC is 0.25 µg/mL (≈ 0.271 µM).

Question: And the MIC ([4]; Cryptococcus neoformans SA2)?
Answer: Its MIC is 0.25 µg/mL (≈ 0.271 µM).

Question: What about the “MIC at 24-48 hours” value ([5]; Candida albicans ATCC 90028) of the same compound?
Answer: Its value is 0.5 µg/mL (≈ 0.541 µM).

Question: What about the “MIC at 24-48 hours” value ([5]; Candida albicans SA3) of the same compound?
Answer: Its value is 2 µg/mL (≈ 2.16 µM).

Question: What about the “MIC at 24-48 hours” value ([6]; Cryptococcus neoformans SA1) of the same compound?
Answer: The value was 0.3 µg/mL (≈ 0.325 µM).

Question: And the “MIC at 24-48 hours” value ([6]; Cryptococcus neoformans SA2)?
Answer: The value was 0.3 µg/mL (≈ 0.325 µM).

Question: And the MIC ([7]; human clinical isolate C. gatti 17-90232099)?
Answer: The MIC was 1 µg/mL (≈ 1.08 µM).

Question: What about the MIC ([7]; human clinical isolate C. gattii 16-90050373) of the same compound?
Answer: Its MIC is 1 µg/mL (≈ 1.08 µM).

Question: What about the MIC ([7]; human clinical isolate C. gattii 17-90028211) of the same compound?
Answer: Its MIC is 1 µg/mL (≈ 1.08 µM).

Question: And the MIC ([7]; human clinical isolate C. gattii 17-90028217)?
Answer: Its MIC is 0.5 µg/mL (≈ 0.541 µM).

Question: What about the MIC ([7]; human clinical isolate C. gattii 17-90028242) of the same compound?
Answer: The MIC was 1 µg/mL (≈ 1.08 µM).

Question: And the MIC ([8]; C. albicans SA3)?
Answer: Its MIC is 2 µg/mL (≈ 2.16 µM).

Question: And the MIC ([8]; Candida albicans ATCC 90028)?
Answer: Its MIC is 0.5 µg/mL (≈ 0.541 µM).

Question: What about the MIC ([9]; Cryptococcus neoformans SA1) of the same compound?
Answer: The MIC was 0.3 µg/mL (≈ 0.325 µM).

Question: And the MIC ([9]; Cryptococcus neoformans SA2)?
Answer: The MIC was 0.3 µg/mL (≈ 0.325 µM).

Question: What about the MIC ([9]; human clinical isolate C. neoformans serotype A/D hybrid) of the same compound?
Answer: Its MIC is 0.5 µg/mL (≈ 0.541 µM).

Question: And the MIC ([9]; human clinical isolate C. neoformans var grubii 16-90050434)?
Answer: The MIC was 1 µg/mL (≈ 1.08 µM).

Question: And the MIC ([9]; human clinical isolate C. neoformans var grubii 17-90028233)?
Answer: The MIC was 2 µg/mL (≈ 2.16 µM).

Question: What about the MIC ([9]; human clinical isolate C. neoformans var grubii 17-93996464) of the same compound?
Answer: Its MIC is 1 µg/mL (≈ 1.08 µM).

Question: What about the MIC ([9]; human clinical isolate C. neoformans var grubii 17-93996964) of the same compound?
Answer: The MIC was 1 µg/mL (≈ 1.08 µM).
